Assay results taken from patent US20250213547A1, “METHODS OF TREATING NEUROLOGICAL DISEASES” (priority 2022, published 2025).

Legend:
CH24H = target: T1, CH24H (Homo sapiens, UniProt Q9Y6A2); test: PK/PD (PK/OE/24HC) turnover modeling; conditions: turnover model estimate
T1 construct: from tissue; host or cells: brain of living human trial subjects (in vivo)
Source text: Similar to the PK model, the PK/PD model was developed as a population mixed-effects model and incorporated the individual PK parameters from the final PK population model. A turnover model was used to characterize changes in plasma 24HC overtime. Plasma 24HC was considered to be at steady-state baseline (BL) before the start of treatment. […] PK/PD covariates were screened in a procedure similar to the PK covariates. In the final PK/PD model, two covariates, A1-AGLP and body weight affected baseline 24HC.
The PK/PD analysis dataset consisted of 2165 24HC observations from 3 phase I trials. Four subjects from the ELEKTRA study with large IC50 estimates were excluded from the dataset. Additionally, 42 individuals with large conditional weighted residuals were excluded from the dataset. The final dataset contained 2107 24HC observations from 248 subjects. Table 26 summarizes the modeling dataset with reference to example numbers, respective clinical trial ID, subject numbers, regimen, and number of observations and doses. Tables 27 and 28 summarize the categorical covariates used in PK/OE/24HC analysis from the entire dataset and the ELEKTRA study subset, respectively.
Tables 29 and 30 summarize the mean continuous variables used in the PK/OE/24HC covariate analysis from the entire PK/OE/24HC population studied and the ELEKTRA subset, respectively. In addition to the shared variables, the PK/PD dataset contained the individual final estimates of the population PK model parameters (IND_ALAG1, IND_KA, IND_CL, IND_V2, IND_Q, IND_V3, and IND_F1). Subjects without individual PK parameter estimates (e.g. subjects from the placebo arms) were assigned to the respective geometric mean of the estimated individual parameter values.
A turnover model was used to describe changes in 24HC concentration over time. […] The following formula estimates change in 24HC: […]
The indirect exposure effect (EFF) was estimated by an Imax model:
The effect-site concentration was implemented as a delayed equilibrium with the plasma/brain transit rate parameter (KPLBR):
The scaling parameter KPLBR was previously estimated in a competitive enzyme occupancy model derived from PET brain imaging data (NCT02497235, Table 19). Parameters derived from this base model were fixed at their previous final PK population estimates derived from example 12. However, no random effects could be estimated without enzyme occupancy data. FIG. 26 depicts the basic model structure in relation to observed and unobserved data. There was a strong growth-related increase in baseline 24HC levels, which was only observed in young subjects.
The following variables were screened by forward inclusion, backward exclusion F-tests: • Growth/maturity: Weight, BMI, and age • Protein binding: Albumin (ALB), A1-AGLP • Liver function: AST, ALT, GGT, and ALP • Kidney function: Creatinine clearance (CRCL), eGFR • Categorical variables: Asian, sex. Ethnicity, and disease type

[1] = Relative stability of crystalline polymorphs; type: physicochemical; conditions: Form II compared with Form I

T1 sequence (Q9Y6A2 whole entry): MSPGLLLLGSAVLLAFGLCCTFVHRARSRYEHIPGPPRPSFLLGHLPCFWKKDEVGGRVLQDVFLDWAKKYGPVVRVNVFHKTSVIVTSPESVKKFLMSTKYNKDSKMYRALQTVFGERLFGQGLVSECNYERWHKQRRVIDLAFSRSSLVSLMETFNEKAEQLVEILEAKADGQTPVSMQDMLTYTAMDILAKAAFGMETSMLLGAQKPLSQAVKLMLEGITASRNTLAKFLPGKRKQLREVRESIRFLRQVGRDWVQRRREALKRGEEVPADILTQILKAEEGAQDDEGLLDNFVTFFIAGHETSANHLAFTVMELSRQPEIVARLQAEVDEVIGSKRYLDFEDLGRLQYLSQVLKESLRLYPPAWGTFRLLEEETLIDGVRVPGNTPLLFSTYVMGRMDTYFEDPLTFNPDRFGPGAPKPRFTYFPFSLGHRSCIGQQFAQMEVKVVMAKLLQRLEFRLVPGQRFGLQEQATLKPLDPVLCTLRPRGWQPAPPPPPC

SMILES | 24HC elimination rate (KOUT) (CH24H) [ng/mL/h] | 24HC synthesis rate (KIN) (CH24H) [h⁻¹] | polymorph stability [1]
CC(C)C(O)CC[C@@H](C)[C@H]1CC[C@H]2[C@@H]3CC=C4C[C@@H](O)CC[C@]4(C)[C@H]3CC[C@]12C (stereo partly drawn) [24HC, 24-hydroxycholesterol] | 0.02 | 1.09 | –
O=C(c1cccnc1-c1ccncc1)N1CCC(O)(Cc2ccccc2)CC1 [Form II, (4-benzyl-4-hydroxypiperidin-1-yl) (2,4′-bipyridin-3-yl) methanone] | – | – | more stable than Form I
